Patent US12419305B2, “Antimicrobial compositions” (Firmenich SA, priority 2018, dated 2025)

Experiments:
E. coli ATCC 10536 = test: BCT test (bacterial contact time), 45 s, log reduction / effect fraction; CI by Compusyn; format: cell-based, Escherichia coli; conditions: 45 s, in 20% EtOH
Experimental: (§1) E. coli, S. aureus, P. aeruginosa, and S. enterica: Separate suspensions of the E. coli ATCC 10536 strain, S. aureus ATCC 6538 strain, Pseudomonas aeruginosa ATCC 15442 strain, and the Salmonella enterica ATCC 10708 strain were prepared as follows: Stock cultures (stored at −80° C.) were thawed and sub-cultured onto Tryptic Soy Agar (TSA) agar plate media, and incubated at 37° C. for 24 h to obtain single colonies. Single colonies of the primary cultures were streaked onto TSA plates and incubated at 37° for 24 h to generate secondary cultures. Single colonies of secondary cultures picked and used to inoculate into 50 mL of TSB broth. The inoculated TSB broth was incubated at 37° C. at 180 rpm for 18 h. Aliquots (0.5 ml) of the 18 h culture were inoculated into 50 ml of fresh TSB broth, and incubated at 37° C. at 180 rpm for 2-3 hours. When the OD600 nm value of the broth reached 1-2, cells were harvested by centrifugation at 5000 rpm for 10 min, and then resuspended in fresh TSB broth at a concentration of 1-5×10^8 CFU/mL. These suspensions were used as the bacterial suspensions for the BCT test.
(§2) BCT Test: Test compositions at a range of concentrations (either combinations of more than one perfume ingredient, and comparative compositions comprising the single perfume ingredients) were prepared in ethanol. Five replicates of each test composition were added into 96-well microtiter plates (120 μl per well), with row B containing control compositions containing the ethanol solution alone. 120 μl of bacterial cell suspensions at a concentration of approximately 1×10^8 bacteria per mL (as prepared above) were added to each well of the microtiter plate. The bacterial suspensions were incubated with the test solutions for 45, 60, or 120 seconds. Following the incubation of the bacterial suspensions with the test solutions, serial dilutions of the bacterial suspensions were generated (three serial 1:10 dilutions, followed by 17 serial 1:2 dilutions), in multiwell microtiter plates.
(§3) Each plate was sealed and incubated at 37° C. under agitation (180 rpm). After incubation, the turbidity of the wells (OD600 nm) was determined using a Tecan microplate reader. Turbid wells were regarded as positive growth, due to the presence of viable cells. The total number of viable cells (log CFU) for each sample was calculated. And the log reduction for each test composition at the final concentration (dose) was calculated against the control sample of the ethanol solution.
(§4) Determination of Synergy via the Combination Index (CI): The CI was calculated using Compusyn software (ComboSyn, Inc., as created by Dr. Dorothy Chou in 2005), according to the manufacturer's instructions. The concentration of each test composition (combinations of more than one perfume ingredient, and comparative compositions comprising the single perfume ingredients used to generate the combination) and their corresponding effect fraction was entered, and the corresponding CI calculated.
(§5) When the calculated CI values were less than 0.9, the combination of perfume ingredients was regarded as having synergistic effect. When the calculated CI was between 1.0 a 0.9, the combination of perfume ingredients was regarded as having an additive effect. When the calculated CI was greater than 1.0, the combination of perfume ingredients was regarded as having an antagonistic effect.

[1] = tested on: Pseudomonas aeruginosa ATCC 15442; test: BCT test (bacterial contact time), 60 s, log reduction / effect fraction; CI by Compusyn; format: cell-based; conditions: Pseudomonas aeruginosa, ATCC15442, 1 min, BCT 60 s, in 25% EtOH
Experimental: as §1, §2, §3, §4, §5

S. aureus ATCC 6538 = test: as above; format: cell-based, Staphylococcus aureus; conditions: in 25% EtOH
Experimental: as §1, §2, §3, §4, §5

[2] = tested on: Salmonella enterica ATCC 10708; test: as above; format: cell-based; conditions: BCT 60 s, in 25% EtOH
Experimental: as §1, §2, §3, §4, §5

## CCOC(=O)C=Cc1ccccc1 [Ethyl Cinnamate]
E. coli ATCC 10536; Escherichia coli, ATCC10536, 45 s, dose 0.030 % w/v
  log reduction at 0.03 % strength: 1
E. coli ATCC 10536; Escherichia coli, ATCC10536, 45 s, dose 0.035 % w/v
  log reduction at 0.035 % strength: 3.7
E. coli ATCC 10536; Escherichia coli, ATCC10536, 45 s, dose 0.040 % w/v
  log reduction at 0.04 % strength: 5.4
E. coli ATCC 10536; Escherichia coli, ATCC10536, 45 s, dose 0.045 % w/v
  log reduction at 0.045 % strength: 7.3

## COc1ccc(C=O)cc1 [Aldehyde Anisic, 4-methoxybenzaldehyde]
[1]; Dose 0.3 % w/v, read-out: Log reduction
  log reduction at 0.3 % strength: 0.6
[1]; Dose 0.35 % w/v
  log reduction at 0.35 % strength: 1.6
[1]; Dose 0.45 % w/v, read-out: Log reduction
  log reduction at 0.45 % strength: 6.2
[1]; Dose 0.475 % w/v
  log reduction at 0.475 % strength: 5.9
[1]; Dose 0.5 % w/v
  log reduction at 0.5 % strength: 7
E. coli ATCC 10536; Escherichia coli, ATCC10536, 45 s, dose 0.400 % w/v
  log reduction at 0.4 % strength: 0.3
E. coli ATCC 10536; Escherichia coli, ATCC10536, 45 s, dose 0.450 % w/v, read-out: Log reduction
  log reduction at 0.45 % strength: 0.6
E. coli ATCC 10536; Escherichia coli, ATCC10536, 45 s, dose 0.500 % w/v
  log reduction at 0.5 % strength: 2.7
E. coli ATCC 10536; Escherichia coli, ATCC10536, 45 s, dose 0.550 % w/v, read-out: Log reduction
  log reduction at 0.55 % strength: 6.7
E. coli ATCC 10536; Escherichia coli, ATCC10536, 45 s, dose 0.600 % w/v, read-out: Log reduction
  log reduction at 0.6 % strength: 7.3
S. aureus ATCC 6538; Staphylococcus aureus, ATCC6538, 1 min, dose 0.500 % w/v, 60 s, read-out: Log reduction
  log reduction at 0.5 % strength: 0.7
S. aureus ATCC 6538; Staphylococcus aureus, ATCC6538, 1 min, dose 0.600 % w/v, 60 s, read-out: Log reduction
  log reduction at 0.6 % strength: 2.3
S. aureus ATCC 6538; Staphylococcus aureus, ATCC6538, 1 min, dose 0.650 % w/v, 60 s
  log reduction at 0.65 % strength: 3.5
S. aureus ATCC 6538; Staphylococcus aureus, ATCC6538, 1 min, dose 0.700 % w/v, 60 s, read-out: Log reduction
  log reduction at 0.7 % strength: 5.9
S. aureus ATCC 6538; Staphylococcus aureus, ATCC6538, 1 min, dose 0.800 % w/v, 60 s
  log reduction at 0.8 % strength: 6.9

## CC(=O)OC(C)c1ccccc1 (stereo not drawn) [Styrallyl Acetate]
E. coli ATCC 10536; dose 0.120 % w/v
  Effect fraction: 0.03
  Log reduction: 0.3
E. coli ATCC 10536; dose 0.140 % w/v
  Effect fraction: 0.09
  Log reduction: 0.7
E. coli ATCC 10536; dose 0.160 % w/v
  Effect fraction: 0.37
  Log reduction: 2.7
E. coli ATCC 10536; dose 0.200 % w/v
  Effect fraction: 1.00
  Log reduction: 7.4
E. coli ATCC 10536; dose […] w/v
  Effect fraction: 0.86
  Log reduction: 6.4

## O=C/C=C/c1ccccc1 [Cinnamic aldehyde]
S. aureus ATCC 6538; Staphylococcus aureus, ATCC6538, 1 min, Dose 0.25 % w/v, BCT 60 s
  log reduction at 0.25 % strength: 0.3
S. aureus ATCC 6538; Staphylococcus aureus, ATCC6538, 1 min, Dose 0.3 % w/v, BCT 60 s
  log reduction at 0.3 % strength: 2.9
S. aureus ATCC 6538; Staphylococcus aureus, ATCC6538, 1 min, Dose 0.325 % w/v, BCT 60 s
  log reduction at 0.325 % strength: 4.2
S. aureus ATCC 6538; Staphylococcus aureus, ATCC6538, 1 min, Dose 0.35 % w/v, BCT 60 s
  log reduction at 0.35 % strength: 6.5
S. aureus ATCC 6538; Staphylococcus aureus, ATCC6538, 1 min, Dose 0.4 % w/v, BCT 60 s
  log reduction at 0.4 % strength: 7.1

## OCc1ccccc1 [Benzyl alcohol]
E. coli ATCC 10536; Escherichia coli, ATCC10536, 45 s, dose 1.000 % w/v
  log reduction at 1 % strength: 0.2
E. coli ATCC 10536; Escherichia coli, ATCC10536, 45 s, dose 1.200 % w/v
  log reduction at 1.2 % strength: 2
E. coli ATCC 10536; Escherichia coli, ATCC10536, 45 s, dose 1.300 % w/v
  log reduction at 1.3 % strength: 4.3
E. coli ATCC 10536; Escherichia coli, ATCC10536, 45 s, dose 1.400 % w/v
  log reduction at 1.4 % strength: 5.9
E. coli ATCC 10536; Escherichia coli, ATCC10536, 45 s, dose 1.600 % w/v
  log reduction at 1.6 % strength: 7.3

## OC/C=C/c1ccccc1 [Cinnamic Alcohol Ord]
E. coli ATCC 10536; dose 0.200 % w/v
  Effect fraction: 0.00
  Log reduction: 0
E. coli ATCC 10536; dose 0.250 % w/v
  Effect fraction: 0.02
  Log reduction: 0.2
E. coli ATCC 10536; dose 0.300 % w/v
  Effect fraction: 0.17
  Log reduction: 1.3
E. coli ATCC 10536; dose 0.350 % w/v
  Effect fraction: 0.52
  Log reduction: 4.0
E. coli ATCC 10536; dose 0.400 % w/v
  Effect fraction: 1.00
  Log reduction: 7.6

## COC(C)(C)CCCC(C)C=O (stereo not drawn) [Methoxymelonal]
S. aureus ATCC 6538; Dose 0.600 % w/v, BCT 60 s
  Effect fraction: 0.020
  Log reduction: 0.1
S. aureus ATCC 6538; Dose 0.800 % w/v, BCT 60 s
  Effect fraction: 0.110
  Log reduction: 0.8
S. aureus ATCC 6538; Dose 0.900 % w/v, BCT 60 s
  Effect fraction: 0.360
  Log reduction: 2.6
S. aureus ATCC 6538; Dose 1.000 % w/v, BCT 60 s
  Effect fraction: 0.700
  Log reduction: 5.1
S. aureus ATCC 6538; Dose 1.200 % w/v, BCT 60 s
  Effect fraction: 0.970
  Log reduction: 7.1

## CCC(CC(C)CC)=NO (stereo not drawn) [Stemone]
S. aureus ATCC 6538; Dose 0.1 % w/v, BCT 60 s
  Effect fraction: 0.050
  Log reduction: 0.4
S. aureus ATCC 6538; Dose 0.120 % w/v, BCT 60 s
  Effect fraction: 0.220
  Log reduction: 1.6
S. aureus ATCC 6538; Dose 0.140 % w/v, BCT 60 s
  Effect fraction: 0.660
  Log reduction: 4.8
S. aureus ATCC 6538; Dose 0.15 % w/v, BCT 60 s
  Effect fraction: 0.890
  Log reduction: 6.4
S. aureus ATCC 6538; Dose 0.160 % w/v, BCT 60 s
  Effect fraction: 1.000
  Log reduction: 7.2

## COc1ccc(C=O)cc1 [Aldehyde Anisique]
[2]; Dose 0.4 % w/v
  Effect fraction: 0.190
  Log reduction: 1.5
[2]; Dose 0.42 % w/v
  Effect fraction: 0.370
  Log reduction: 2.8
[2]; Dose 0.46 % w/v
  Effect fraction: 0.670
  Log reduction: 5.2
[2]; Dose 0.5 % w/v
  Effect fraction: 1.000
  Log reduction: 7.7

## OCCc1ccccc1 [PEA]
E. coli ATCC 10536; dose 0.650 % w/v
  Effect fraction: 0.00
  Log reduction: 0.0
E. coli ATCC 10536; dose 0.700 % w/v
  Effect fraction: 0.01
  Log reduction: 0.1
E. coli ATCC 10536; dose 0.750 % w/v
  Effect fraction: 0.11
  Log reduction: 0.8
E. coli ATCC 10536; dose 0.800 % w/v
  Effect fraction: 0.16
  Log reduction: 1.2
E. coli ATCC 10536; dose 0.850 % w/v
  Effect fraction: 0.60
  Log reduction: 4.3
